Broadly, the MIC is the lowest concentration that inhibits growth of the organism. Low values mean a more susceptible organism, high ones a less susceptible organism. The IC50 is the concentration that gives 50% inhibition. By AUC is commonly meant concentration integrated over time. Low readings indicate low exposure, high ones high exposure. A word on the clearance: it is a measure of how efficiently the substance is removed, as volume per time. The low end stands for inefficient removal, the high end for efficient removal.

Structures are written as SMILES. In brackets after ≈: the same amount, converted by molar mass. Some results are limits rather than exact numbers.

The test system of data set [1] is Escherichia coli. The data set is described as follows: Antimicrobial activity against Escherichia coli assessed as zone of inhibition at 600 ug/ml after 24 hrs by disk diffusion method. It is filed as functional. Particulars: read-out: IZ. On the technique in general: A growth-free zone around the sample is the usual read-out of agar diffusion tests.
The test system of a further data set is Proteus vulgaris. The data set is described as follows: Antimicrobial activity against Proteus vulgaris. The class given is functional.
Data set [2] relates to Staphylococcus aureus. The data set is described as follows: Antimicrobial activity against Staphylococcus aureus. It is filed as functional.
The next data set concerns Klebsiella pneumoniae. The data set is described as follows: Antimicrobial activity against Klebsiella pneumoniae. The class given is functional.
For another data set, the system named is Streptococcus pyogenes. The data set is described as follows: Antimicrobial activity against Streptococcus pyogenes. It is filed as functional.
Data set [3] concerns Escherichia coli. The data set is described as follows: Antimicrobial activity against Escherichia coli. The class given is functional.
Data set [4] relates to Pseudomonas aeruginosa. The data set is described as follows: Potency index, ratio of streptomycin MIC to test compound MIC for antimicrobial activity against Pseudomonas aeruginosa. It is filed as functional.
Data set [5] deals with Bacillus subtilis. The data set is described as follows: Antimicrobial activity against Bacillus subtilis. It is filed as functional.
For data set [6], the system named is Escherichia coli. The data set is described as follows: Potency index, ratio of streptomycin MIC to test compound MIC for antimicrobial activity against Escherichia coli. It is filed as functional.
Data set [7] has as its system Bacillus subtilis. Description: Potency index, ratio of streptomycin MIC to test compound MIC for antimicrobial activity against Bacillus subtilis. The class given is functional.
In data set [8] the test system is Pseudomonas aeruginosa. Description: Antimicrobial activity against Pseudomonas aeruginosa. The class given is functional.
The subject of data set [9] is Staphylococcus aureus. Description: Antimicrobial activity against Staphylococcus aureus assessed as zone of inhibition at 100 ug/ml. It is filed as functional. Particulars: read-out: IZ.
Data set [10] relates to Escherichia coli. The data set is described as follows: Antimicrobial activity against Escherichia coli assessed as zone of inhibition at 100 ug/ml. Particulars: read-out: IZ. It is filed as functional.
Data set [11] concerns Bacillus subtilis. The data set is described as follows: Antimicrobial activity against Bacillus subtilis assessed as zone of inhibition at 100 ug/ml. The class given is functional. To be noted: read-out: IZ.
Another data set relates to Streptococcus. Description: Antimicrobial activity against Streptococcus assessed as zone of inhibition at 100 ug/ml. It is filed as functional. Particulars: read-out: IZ.
In the next data set the test system is NIH3T3. The data set is described as follows: Cytotoxicity against mouse NIH/3T3 cells assessed as reduction in cell viability. The class given is cell-based.
Another data set concerns C6. Description: Anticancer activity against rat C6 cells. It is filed as functional, cell-based.
Data set [12] deals with Escherichia coli. The data set is described as follows: Potency index, ratio of ciprofloxacin MIC to test compound MIC for antimicrobial activity against Escherichia coli. It is filed as functional.
Data set [13] concerns Bacillus subtilis. The data set is described as follows: Potency index, ratio of ciprofloxacin MIC to test compound MIC for antimicrobial activity against Bacillus subtilis. It is filed as functional.
The test system of the next data set is Aspergillus flavus. Description: Antifungal activity against Aspergillus flavus. The class given is functional.
Data set [14] has as its system Bacillus cereus. The data set is described as follows: Antimicrobial activity against Bacillus cereus. The class given is functional.
The subject of a further data set is Trichothecium roseum. Description: Antifungal activity against Trichothecium roseum. It is filed as functional.
The test system of data set [15] is Talaromyces purpureogenus. Description: Antifungal activity against Penicillium purpurogenum. The class given is functional.
Data set [16] relates to Pseudomonas aeruginosa. The data set is described as follows: Antimicrobial activity against Pseudomonas aeruginosa assessed as zone of inhibition at 250 ug/ml. It is filed as functional. To be noted: read-out: IZ.
The test system of data set [17] is Escherichia coli. Description: Antimicrobial activity against Escherichia coli assessed as zone of inhibition at 250 ug/ml after 24 hrs by disk diffusion method. The class given is functional. To be noted: read-out: IZ.
In data set [18] the test system is Escherichia coli. Description: Antimicrobial activity against Escherichia coli assessed as zone of inhibition at 250 ug/ml. It is filed as functional. To be noted: read-out: IZ.
In data set [19] the test system is Staphylococcus aureus. The data set is described as follows: Antimicrobial activity against Staphylococcus aureus assessed as zone of inhibition at 30 ug/ml. The class given is functional. Particulars: read-out: IZ.
In data set [20] the test system is Bacillus subtilis. The data set is described as follows: Antimicrobial activity against Bacillus subtilis assessed as zone of inhibition at 30 ug/ml. The class given is functional. Particulars: read-out: IZ.
The test system of data set [21] is Aspergillus fumigatus. The data set is described as follows: Antifungal activity against Aspergillus fumigatus assessed as zone of inhibition at 30 ug/ml. It is filed as functional. Particulars: read-out: IZ.
The subject of data set [22] is Bacillus cereus. The data set is described as follows: Antimicrobial activity against Bacillus cereus assessed as zone of inhibition at 250 ug/ml. It is filed as functional. To be noted: read-out: IZ.
The subject of data set [23] is Candida albicans. Description: Antifungal activity against Candida albicans assessed as zone of inhibition at 30 ug/ml. It is filed as functional. To be noted: read-out: IZ.
The test system of a further data set is Aspergillus niger. Description: Antifungal activity against Aspergillus niger assessed as zone of inhibition at 250 ug/ml. The class given is functional. To be noted: read-out: IZ.
Data set [24] concerns Escherichia coli. Description: Antimicrobial activity against Escherichia coli assessed as zone of inhibition at 30 ug/ml. The class given is functional. To be noted: read-out: IZ.
Data set [25] has as its system Pseudomonas aeruginosa. The data set is described as follows: Antimicrobial activity against Pseudomonas aeruginosa assessed as zone of inhibition at 30 ug/ml. To be noted: read-out: IZ. It is filed as functional.
The test system of data set [26] is Candida albicans. Description: Antifungal activity against Candida albicans assessed as zone of inhibition at 250 ug/ml. The class given is functional. To be noted: read-out: IZ.
In data set [27] the test system is Staphylococcus aureus. The data set is described as follows: Antimicrobial activity against Staphylococcus aureus assessed as zone of inhibition at 250 ug/ml. To be noted: read-out: IZ. The class given is functional.
A short description of data set [28]: Half life in rat. Particulars: in vivo. It is filed as ADME.
Data set [29] can be described thus: AUC in rat. It is filed as ADME. To be noted: in vivo.
Data set [30] has as its system Bacillus subtilis. The data set is described as follows: Antimicrobial activity against Bacillus subtilis assessed as zone of inhibition at 10 ug/ml. Particulars: read-out: IZ. It is filed as functional.
For data set [31], the system named is Pseudomonas aeruginosa. The data set is described as follows: Antimicrobial activity against Pseudomonas aeruginosa assessed as zone of inhibition at 10 ug/ml. The class given is functional. Particulars: read-out: IZ.
Data set [32] deals with Staphylococcus aureus. Description: Antimicrobial activity against Staphylococcus aureus assessed as zone of inhibition at 10 ug/ml. The class given is functional. Particulars: read-out: IZ.
In data set [33] the test system is Candida albicans. The data set is described as follows: Antifungal activity against Candida albicans. It is filed as functional.
Data set [34] concerns Escherichia coli. Description: Antimicrobial activity against Escherichia coli assessed as zone of inhibition at 10 ug/ml. To be noted: read-out: IZ. The class given is functional.
For data set [35], the system named is Candida albicans. Description: Antifungal activity against Candida albicans assessed as zone of inhibition at 10 ug/ml. The class given is functional. To be noted: read-out: IZ.
Data set [36] concerns Aspergillus fumigatus. Description: Antifungal activity against Aspergillus fumigatus assessed as zone of inhibition at 10 ug/ml. The class given is functional. Particulars: read-out: IZ.
Data set [37] is described as follows: Clearance in rat. It is filed as ADME. Particulars: in vivo.

In the case of `c1ccc2c(c1)sc1nnnn12`, the zone of inhibition at 600 µg/mL in the data set on Escherichia coli [1] was 15 to 20 mm.
Take `O=C(O)c1cn(C2CC2)c2cc(N3CCN(C(=O)Cn4nnnc4S)CC3)c(F)cc2c1=O`: the MIC in the data set on Proteus vulgaris, against Staphylococcus aureus [2], in the data set with Klebsiella pneumoniae and with Streptococcus pyogenes was 2 to 128 µg/mL (≈ 4.22 to 270 µM) in each case.
As for `O=c1c(OCc2nnn[nH]2)c(-c2ccc(F)cc2)oc2ccccc12`, the MIC against Escherichia coli [3], with Staphylococcus aureus [2], with Bacillus subtilis [5] and with Pseudomonas aeruginosa [8] was 100 µg/mL (≈ 296 µM) throughout. The Ratio with Pseudomonas aeruginosa [4], in the data set on Escherichia coli [6] and with Bacillus subtilis [7] was 2 - 4 throughout.
In the case of `Clc1cccc(-c2nnc(SCc3ccc(-c4ccccc4-c4nn[nH]n4)cc3)o2)c1`, the zone of inhibition at 100 µg/mL in the data set with Staphylococcus aureus [9], with Escherichia coli [10], in the data set with Bacillus subtilis [11] and in the data set on Streptococcus was 20 to 27 mm throughout.
Turning to `O=C(CSc1nnnn1-c1ccccc1)N/N=c1\scc(-c2ccccc2)n1-c1ccccc1`, the results for the IC50 in the data set with NIH3T3 and in the data set on C6 were 417 µg/mL (≈ 858 µM) and 8.3 µg/mL (≈ 17.1 µM), respectively.
As for `COc1cccc(OC)c1/C=C1\SC(=O)N(Cc2ccc(-c3ccccc3-c3nnn[nH]3)cc2)C1=O`, the Ratio in the data set on Escherichia coli [12] and with Bacillus subtilis [13] was more than 2.91 throughout. Also, the minimum inhibitory concentration (MIC) against Escherichia coli [3] came out at 8.58 µg/mL (≈ 17.2 µM); in the data set with Bacillus subtilis [5], 8.41 µg/mL (≈ 16.8 µM).
Consider `COc1ccc(/C=C2\SC(=O)N(Cc3ccc(-c4ccccc4-c4nnn[nH]4)cc3)C2=O)cc1`, for which the Ratio with Escherichia coli [12] and in the data set with Bacillus subtilis [13] was more than 2.91 throughout. Further, the MIC in the data set on Escherichia coli [3] was found to be 7.7 µg/mL (≈ 16.4 µM); with Bacillus subtilis [5], 8.33 µg/mL (≈ 17.7 µM).
In the case of `N=C(N)Nc1nnn(Cc2cccc(Cn3nnc(C(=N)N)n3)c2)n1`, the MIC (in the data set with Aspergillus flavus; against Escherichia coli [3]; with Bacillus subtilis [5]; against Bacillus cereus [14]; in the data set on Trichothecium roseum; in data set [15]) was 30 to 40 µg/mL (≈ 87.9 to 117 µM) each time. Besides, the MIC against Pseudomonas aeruginosa [8] is 30 to 40 µg/mL (≈ 87.9 to 117 µM).
`N=C(N)Nc1nnn(Cc2ccccc2Cn2nnc(C(=N)N)n2)n1`: the MIC (against Aspergillus flavus; against Escherichia coli [3]; in the data set on Bacillus subtilis [5]; in the data set with Bacillus cereus [14]; against Trichothecium roseum; in data set [15]) was 30 to 40 µg/mL (≈ 87.9 to 117 µM) each time. The MIC with Pseudomonas aeruginosa [8] is 30 to 40 µg/mL (≈ 87.9 to 117 µM).
Take `CC1(C)S[C@@H]2[C@H](NC(=O)[C@H](N)c3ccc(O)cc3)C(=O)N2[C@H]1C(=O)O` [AMOXICILLIN]: the zone of inhibition at 250 µg/mL in the data set with Pseudomonas aeruginosa [16], in the data set on Escherichia coli [17], with Escherichia coli [18], in the data set on Bacillus cereus [22], in the data set on Aspergillus niger and with Candida albicans [26] was 21 to 27 mm throughout. Moreover, in the data set with Staphylococcus aureus [27], the zone of inhibition at 250 µg/mL fell in the range of 21 to 27 mm. In addition, the zone of inhibition at 30 µg/mL with Staphylococcus aureus [19], with Bacillus subtilis [20], with Aspergillus fumigatus [21], with Candida albicans [23], in the data set with Escherichia coli [24] and in the data set with Pseudomonas aeruginosa [25] was 25 to 28 mm throughout.
`C[C@@H](O)[C@H]1C(=O)N2C(C(=O)O)=C(SCCN=CN)C[C@H]12` [IMIPENEM ANHYDROUS] returned a t1/2 in data set [28] of 3.46 h. This compound gave an AUC in data set [29] of 5500 ng·h/mL.
As to `CC(=O)N1CCN(c2ccc(OCC3COC(Cn4ccnc4)(c4ccc(Cl)cc4Cl)O3)cc2)CC1` (stereo unspecified) [KETOCONAZOLE], the zone of inhibition at 250 µg/mL with Pseudomonas aeruginosa [16], with Escherichia coli [18], with Bacillus cereus [22], in the data set on Aspergillus niger, with Candida albicans [26] and in the data set on Staphylococcus aureus [27] was 23 to 26 mm throughout. Further, the zone of inhibition at 10 µg/mL with Bacillus subtilis [30], in the data set on Pseudomonas aeruginosa [31], with Staphylococcus aureus [32], with Escherichia coli [34], with Candida albicans [35] and in the data set on Aspergillus fumigatus [36] was 23 to 24 mm each time. For the same compound, the MIC against Candida albicans [33] and in the data set on Bacillus subtilis [5] was 100 µg/mL (≈ 188 µM) in each case.
For the compound `C[C@@H](O)[C@H]1C(=O)N2C(C(=O)O)=C(S[C@@H]3CN[C@H](C(=O)N(C)C)C3)[C@H](C)[C@H]12` [MEROPENEM], the t1/2 in data set [28] was found to be 3.99 h. The compound also gave a clearance in [37] of 51.2 mL/min/kg.

For the origin of these results see ChEMBL document CHEMBL4342421, “Current scenario of tetrazole hybrids for antibacterial activity” (Eur J Med Chem, 2019).
